In series [1] the target is T1, elastase (Sus scrofa, UniProt P00772). The series can be described thus: Elastase inhibition assay. Format: biochemical. Particulars: for pIC50: read-out: E (elastase) IC50; for E (elastase) inhibition class: class symbol instead of IC50. As for the experimental part: (§1) The enzyme inhibitory activity of cyanopeptolins was assayed against trypsin [108], chymotrypsin, thrombin [109], and elastase as described before. In brief, the samples were prepared and serially diluted (1 mg, 1:1—1:10,000 times) in 1% DMSO; the standard inhibitors: aprotinin (trypsin and chymotrypsin) AEBSF 4-(2-aminoethyl)benzenesulfonyl fluoride hydrochloride (thrombin), elastatinal (elastase) (all from Sigma Aldrich; St. Louis, MO, USA) were also prepared in 1% DMSO. DMSO (1%) without the addition of the enzyme served as a negative control. All tests were carried out in triplicates. After the incubation of the assay mixtures, the absorbances were measured at 405 nm (Varioskan Flash Thermo Fisher Scientific OY, Vantaa, Finland). The reduction in enzyme activity greater than 50% was considered as significant.
T1 sequence (P00772 27-266): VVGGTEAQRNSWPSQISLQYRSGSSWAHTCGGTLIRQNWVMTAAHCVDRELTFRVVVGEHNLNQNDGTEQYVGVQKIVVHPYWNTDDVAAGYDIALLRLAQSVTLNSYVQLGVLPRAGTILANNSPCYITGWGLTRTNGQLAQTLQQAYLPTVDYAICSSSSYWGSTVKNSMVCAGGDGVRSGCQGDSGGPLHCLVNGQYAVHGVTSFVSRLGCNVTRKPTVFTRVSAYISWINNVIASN

Series [2] concerns the target thrombin (Homo sapiens, UniProt P00734). Description: Thrombin inhibition assay. Format: biochemical. Particulars: highest concentration in the assay 45 µg × mL−1. As for the experimental part:
as §1

Series [3] has as its system human cervical cancer (HeLa) cell line. Description: MTT assay on HeLa cells. Format: cell-based. Particulars: 200 µg × mL−1, 24 h. The protocol: The cytotoxic activity of the selected 17 CPs against the HeLa cervical cancer cell line (Merck KGaA, Darmstadt, Germany) was assessed with the MTT (3-(4,5-dimethylthiazole-2-yl)-2,5-diphenyltetrazolium bromide) assay according to Felczykowska et al.. HeLa cells were seeded at 4 × 10^3 cells per well in DMEM medium (Merck KGaA) supplemented with 10% (v/v) fetal bovine serum (Merck KGaA) and penicillin-streptomycin solution (1% v/v, stock solution 50 u and 0.05 mg × mL^−1, respectively; Merck KGaA). Cells were allowed to attach overnight, and then the tested compounds prepared in 1% DMSO were added. After incubation (24 h), 25 µL of MTT solution (4 mg × mL^−1; Merck KGaA) were added and then the samples were incubated for another 4 h. The formazan crystals were dissolved with 100% DMSO and absorbance was measured with Spectramax i3 (Molecular Deviecs, LLC San Jose, CA, USA). The reduction in cell viability greater than 60% was considered as significant.
(In general: Formazan colour is commonly taken as a measure of viable cells.)

Series [4] deals with breast cancer cell line. Set-up: method as in PMID 29949853. The settings on record: up to 500 µg × mL−1; cited from earlier work.
The test system of series [5] is breast cancer cells. Set-up: method as in PMID 29405541. The settings on record: cited from earlier work.
For series [6], the system named is H-460 lung cancer cells. Also noted: method as in PMID 18163584. The settings on record: cited from earlier work.
The test system of series [7] is neuro-2a neuroblastoma cells. Also noted: method as in PMID 18163584. Particulars: cited from earlier work.
The test system of series [8] is KB human epithelial carcinoma cells. Set-up: method as in PMID 12762794. Particulars: cited from earlier work.
In series [9] the test system is enzymes. Set-up: method as in PMID 20028081. The settings on record: cited from earlier work.
Series [10] concerns the target T2, trypsin (Bos taurus, UniProt P00760).
T2 sequence (P00760 24-246): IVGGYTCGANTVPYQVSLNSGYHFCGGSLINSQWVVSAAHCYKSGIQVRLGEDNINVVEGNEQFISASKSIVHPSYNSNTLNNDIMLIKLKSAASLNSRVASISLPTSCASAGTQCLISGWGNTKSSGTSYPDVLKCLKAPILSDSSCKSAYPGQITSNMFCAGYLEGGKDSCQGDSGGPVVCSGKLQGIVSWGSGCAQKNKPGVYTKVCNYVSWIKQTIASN
Description: Trypsin inhibition assay. In kind it is biochemical. Particulars: for activity against serine proteases (in words): Arg2-containing CPs lacking the side-chain, Table 1 enzymes; for TRY (trypsin) inhibition class: class symbol instead of IC50. The protocol:
as §1

Series [11] addresses chymotrypsin (Bos taurus, UniProt P00766). Description: Chymotrypsin inhibition assay. In kind it is biochemical. Particulars: class symbol instead of IC50. The protocol:
as §1, with “In” for “The enzyme inhibitory activity of cyanopeptolins was assayed against trypsin [108], chymotrypsin, thrombin [109], and elastase as described before. In”

Series [12] deals with T1, elastase. Also noted: method as in doi:10.1016/j.tet.2019.04.046. The settings on record: cited from earlier work.
For series [13], the system named is HeLa S3 cells. Set-up: method as in doi:10.1016/j.tet.2019.04.046. Particulars: cited from earlier work.

pIC50: −log10 of the molar value. Read-outs that look alike come from different tables or passages of the source.

One may read the pIC50 as the negative decadic logarithm of the IC50, by convention in mol/L. In the case of `CCCC(=O)NC(CC(=O)O)C(=O)NC1C(=O)NC(CC(C)C)C(=O)NC2CCC(O)N(C2=O)C(Cc2ccccc2)C(=O)N(C)C(Cc2ccccc2)C(=O)NC(C(C)C)C(=O)OC1C` (stereo not drawn) [CP 919, [Thr + Leu + Ahp + Phe + MePhe + Val]Asp + BA], the pIC50 in series [1] is 5.24. Further, the “TRB (thrombin) inhibition class” value in [2] was “− (not active (inhibition below 50%))”. Further, the “reduction in cell viability versus control” value in [3] came out at 97.6%.
Regarding `CC(=O)NC(CC(=O)O)C(=O)NC1C(=O)NC(Cc2ccc(O)cc2)C(=O)NC2CCC(O)N(C2=O)C(Cc2ccccc2)C(=O)N(C)C(Cc2ccccc2)C(=O)NC(C(C)C)C(=O)OC1C` (stereo not drawn) [CP 941, [Thr + Tyr + Ahp + Phe + MePhe + Val]Asp + Ac], in [1], the “E (elastase) inhibition class” value was “− (not active (inhibition below 50%))”. The “TRB (thrombin) inhibition class” value in series [2] is “− (not active (inhibition below 50%))”.
On to `CCCC(=O)NC(CC(=O)O)C(=O)NC1C(=O)NC(CC(C)C)C(=O)NC2CCC(O)N(C2=O)C(Cc2ccccc2)C(=O)N(C)C(Cc2ccc(OC)cc2)C(=O)NC(C(C)C)C(=O)OC1C` (stereo not drawn) [CP 949, [Thr + Leu + Ahp + Phe + diMeTyr + Val]Asp + BA], for which the negative-log IC50 (pIC50) in series [1] was 5.48. For the same compound, the “TRB (thrombin) inhibition class” value in series [2] is “− (not active (inhibition below 50%))”. The “reduction in cell viability versus control” value in series [3] is 71.5%.
On to `CCCC(=O)N[C@@H](CC(=O)O)C(=O)N[C@@H]1C(=O)N[C@@H](CCCNC(=N)N)C(=O)N[C@H]2CC[C@@H](O)N(C2=O)[C@@H](Cc2ccccc2)C(=O)N(C)[C@@H](Cc2ccccc2)C(=O)N[C@@H](C(C)C)C(=O)O[C@@H]1C` [CP 962, [Thr + Arg + Ahp + Phe + MePhe + Val]Asp + BA], for which the “cytotoxic activity (in words)” value in series [4] is on record as “no effects were observed”.
Regarding `CCCC(=O)NC(CC(=O)O)C(=O)NC1C(=O)NC(Cc2ccccc2)C(=O)NC2CCC(O)N(C2=O)C(Cc2ccccc2)C(=O)N(C)C(Cc2ccc(OC)cc2)C(=O)NC(C(C)C)C(=O)OC1C` (stereo not drawn) [CP 983, [Thr + Phe + Ahp + Phe + diMeTyr + Val]Asp + BA], the “E (elastase) inhibition class” value in series [1] was “− (not active (inhibition below 50%))”. The “TRB (thrombin) inhibition class” value in series [2] is “− (not active (inhibition below 50%))”.
For `CCCC(=O)N[C@@H](CC(=O)O)C(=O)N[C@@H]1C(=O)N[C@@H](Cc2ccc(O)cc2)C(=O)N[C@H]2CC[C@@H](O)N(C2=O)[C@@H](Cc2ccccc2)C(=O)N(C)[C@@H](Cc2ccc(O)cc2)C(=O)N[C@@H](C(C)C)C(=O)O[C@@H]1C` [CP 985, [Thr + Tyr + Ahp + Phe + MeTyr + Val]Asp + BA], in series [4], the “cytotoxic activity (in words)” value is “no effects were observed”.
Turning to `CCCCCC(=O)NC(CC(=O)O)C(=O)NC1C(=O)NC(CCCNC(=N)N)C(=O)NC2CCC(O)N(C2=O)C(Cc2ccccc2)C(=O)N(C)C(Cc2ccccc2)C(=O)NC(C(C)C)C(=O)OC1C` (stereo not drawn) [CP 990, [Thr + Arg + Ahp + Phe + MePhe + Val]Asp + HA], in series [1], the “E (elastase) inhibition class” value was “− (not active (inhibition below 50%))”. Further, in series [2], the “TRB (thrombin) inhibition class” value was “− (not active (inhibition below 50%))”.
For `CCCC(=O)NC(CC(=O)O)C(=O)NC1C(=O)NC(Cc2ccc(O)cc2)C(=O)NC2CCC(O)N(C2=O)C(Cc2ccccc2)C(=O)N(C)C(Cc2ccc(OC)cc2)C(=O)NC(C(C)C)C(=O)OC1C` (stereo not drawn) [CP 999, [Thr + Tyr + Ahp + Phe + diMeTyr + Val]Asp + BA], in series [1], the “E (elastase) inhibition class” value is “− (not active (inhibition below 50%))”. Also, the “TRB (thrombin) inhibition class” value in series [2] is reported as “− (not active (inhibition below 50%))”.
On to `C/C=C1\NC(=O)[C@@H](NC(=O)[C@@H](NC(=O)[C@H](C)NC(=O)CCC)[C@@H](C)O)[C@@H](C)OC(=O)[C@H](C(C)C)NC(=O)[C@H](Cc2ccc(O)cc2)N(C)C(=O)[C@H](Cc2ccccc2)N2C(=O)[C@H](CC[C@H]2O)NC1=O` [molassamide], for which, in [5], the “effect on elastase-mediated migration (in words)” value was “inhibiting”.
On to `CCCC(=O)N[C@@H](CCC(N)=O)C(=O)N[C@@H]1C(=O)N[C@@H](CCCNC(N)=O)C(=O)N[C@H]2CC[C@@H](O)N(C2=O)[C@@H]([C@@H](C)CC)C(=O)N(C)[C@@H](Cc2ccc(OC)c(Br)c2)C(=O)N[C@@H](C(C)C)C(=O)O[C@@H]1C` [symplocamide A], for which the “cytotoxic effect (in words)” value in [6] and in series [7] was “affected” each time.
For the compound `CCCC(=O)N[C@H](C(=O)N[C@@H]1C(=O)N[C@@H](CC(C)C)C(=O)N[C@H]2CC[C@@H](O)N(C2=O)[C@@H](CC(C)C)C(=O)N(C)[C@@H](Cc2ccccc2)C(=O)N[C@@H](C(C)C)C(=O)O[C@@H]1C)C(C)C` [tasipeptin A], the “cytotoxic effect (in words)” value in series [8] is reported as “cytotoxic”.
In the case of `CCCC(=O)N[C@@H]1C(=O)N[C@@H](CC(C)C)C(=O)N[C@H]2CC[C@@H](O)N(C2=O)[C@@H](CC(C)C)C(=O)N(C)[C@@H](Cc2ccccc2)C(=O)N[C@@H](C(C)C)C(=O)O[C@@H]1C` [tasipeptin B], the “cytotoxic effect (in words)” value in [8] is “cytotoxic”.
With Micropeptin MZ771, in [9], the “effect on the activity of enzymes (in words)” value is “did not affect the activity of enzymes”.
As for “[Thr + Arg + Ahp + Phe + MePhe + Val] [CP 778]”, in [10], the “activity against serine proteases (in words)” value is “not active” and the “TRY (trypsin) inhibition class” value is on record as “− (not active (inhibition below 50%))”. Moreover, in series [11], the “CHY (chymotrypsin) inhibition class” value is “− (not active (inhibition below 50%))”. In addition, the “E (elastase) inhibition class” value in series [1] is reported as “− (not active (inhibition below 50%))”. The “TRB (thrombin) inhibition class” value in [2] was “− (not active (inhibition below 50%))”.
“[Thr + Arg + Ahp + Phe + diMeTyr + Val] [CP 809]”: in series [10], the “activity against serine proteases (in words)” value is listed as “not active” and the “TRY (trypsin) inhibition class” value was “− (not active (inhibition below 50%))”. Also, the “CHY (chymotrypsin) inhibition class” value in series [11] is “− (not active (inhibition below 50%))”. Moreover, the “E (elastase) inhibition class” value in series [1] is “− (not active (inhibition below 50%))”. The “TRB (thrombin) inhibition class” value in [2] is recorded as “− (not active (inhibition below 50%))”.
As for “[Thr + Phe + Ahp + Phe + diMeTyr + Val]Asp + HA [CP 1011]”, the “TRY (trypsin) inhibition class” value in series [10] was “− (not active (inhibition below 50%))”. Further, the “CHY (chymotrypsin) inhibition class” value in series [11] is “− (not active (inhibition below 50%))”. Besides, in series [1], the “E (elastase) inhibition class” value is “− (not active (inhibition below 50%))”. In addition, in series [2], the “TRB (thrombin) inhibition class” value is “− (not active (inhibition below 50%))”.
As to “[Thr + Tyr + Ahp + Phe + MePhe + Val]Asp + OA [CP 1025]”, in series [10], the “TRY (trypsin) inhibition class” value is given as “− (not active (inhibition below 50%))”. Moreover, the “CHY (chymotrypsin) inhibition class” value in [11] is “+/− (low activity (inhibition between 50 and 60%))”. Also, in series [1], the “E (elastase) inhibition class” value is given as “− (not active (inhibition below 50%))”. Besides, the “TRB (thrombin) inhibition class” value in series [2] is listed as “− (not active (inhibition below 50%))”.
For the compound kyanamide, the pIC50 in [12] was 9.89. Besides, the “cytotoxic effect (in words)” value in [13] is listed as “moderately cytotoxic”.

The record behind these values is publication PMC10608790, “Structural Diversity and Biological Activity of Cyanopeptolins Produced by Nostoc edaphicum CCNP1411” (Marine Drugs, 2023).
